We go through 3 compounds from patent USRE38169E1, “Hyperstabilizing antisense nucleic acid binding agents” (priority 1993, dated 2003).

Series [1] has as its system mRNA of a fragment of the env gene of EIAV. The series is described as follows: In vitro translation (wheat-germ extract, 35S-methionine). In kind it is biochemical. The procedure: The in vitro translation studies were performed as follows. A fragment of DNA from the env gene of EIAV was transcribed with an SP-6 polymerase kit, and the resulting mRNA (approximately 600 bases long) was capped and isolated. The transcribed fragment included the target sequence 5′-[…]-3′ (SEQ ID NO. 3) (the CC-1065 binding site is underlined). The corresponding antisense sequence (using normal phosphodiester chemistry) was 5′-[…]-3′ (SEQ ID NO. 4). Translation was performed with a wheat-germ extract (Promega) in the presence of ^35S-methionine. The mRNA's were divided into approximately 2 μg aliquots, and treated according to the protocols listed for Table 3 below. Treated mRNA was separated from small molecules (such as DMSO and CC-1065) with a Sephadex 50-based NICK column. Translation was carried out in 25 μl of buffer containing the wheat germ translation system; the isolated mRNA; amino acids, including the labelled methionine; and RNAsin, an inhibitor of RNase. The proteins produced were divided into two aliquots. One aliquot was fractionated by SDS-PAGE, followed by autoradiography; and the other was analyzed by scintillation spectrometry. The concentrations of antisense oligomers and CC-1065 in the free-solution chemistries were relatively high compared to the sense target, to optimize duplex formation and drug binding. […] The following pairs were different at the P<0.05 level by Student's t-test (unpaired analysis): 1,5; 2,5; 3,4; 3,5; 4,5.

In series [2] the test system is DNA sense (SEQ ID NO. 1) / DNA-PO antisense duplex (PO-PO). The series is described as follows: Duplex strand separation temperature (Tm). It is filed as binding, equine infectious anemia retrovirus. The note with it: for Tm Elevation: highest level of binding obtained. On the procedure:
(§1) Samples for determining Tm were also obtained by the above procedures. […] Thus the effects of this agent on Tm were carried out with Distamycin in solution with the duplexes tested.
(§2) Tm's were determined on a Gilford 2400 Spectrophotometer set at 260 nm, with a 4-chamber Peltier-based temperature controller. Temperature was ramped linearly at 0.5° C./min. Absorbance data were acquired with a 12-bit A/D converter, and data were processed with Lotus 123W and SigmaPlot software. Tm values were determined from the plots as the midpoint of the thermal transitions.

In series [3] the test system is DNA sense (SEQ ID NO. 1) / DNA-PS antisense duplex. The series can be described thus: Duplex strand separation temperature (Tm). It is filed as binding, equine infectious anemia retrovirus. The note with it: for Tm Elevation: highest level of binding obtained. On the procedure: as §1, §2
For series [4], the system named is Oligo dA - Oligo dT. The series is described as follows: Duplex strand separation temperature (Tm). The note with it: for Tm Elevation: highest level of binding obtained. It is filed as binding. On the procedure:
as §1, §2

The test system of series [5] is Poly rA - Oligo dT (PO). The series can be described thus: Duplex strand separation temperature (Tm). It is filed as binding. The note with it: for Tm Elevation: highest level of binding obtained. On the procedure:
as §1, §2

Series [6] concerns DNA sense (SEQ ID NO. 1) / DNA-MP antisense duplex (PO-MP). The series can be described thus: Binding of drug to duplex (NACS column, A365/A260). More on the design: species or system equine infectious anemia retrovirus. The procedure:
(§3) Oligodeoxyribonucleotides were obtained by chemical synthesis through standard techniques on an automated synthesizer located in the Department of Veterinary Microbiology and Parasitology at Louisiana State University. Antisense MP and PS oligonucleotides were obtained from commercial sources, as was synthetic sense RNA. Poly(rA) was obtained from Sigma Chemical Co. CC-1065 was obtained from the Upjohn Company. Oligonucleotides (0.075 μmol-P each) were mixed in 0.36 ml 0.01 M Na cacodylate buffer, pH 7.2, with CC-1065 in dimethyl formamide (0.04 ml), or with dimethylformamide only. (Note that “μmol-P” denotes μmoles of phosphate; i.e., μmoles of nucleotide bases, rather than of oligonucleotides per se.) Incubations of complementary strands, with or without drug, were carried out at 37° C. for 4 hr. In the initial experiments, unbound drug was separated from nucleotide duplexes by ethanol precipitation. Equivalent results were obtained by trapping the oligonucleotides and CC-1065 on NACS-52 columns, and washing first with low-salt buffer and then with buffer containing 1M NaCl. Unbound CC-1065 was completely retained on the column. […] Samples prepared in this manner could be directly used for determination of binding of the drug to the nucleic acid (as measured by the A365/A260 ratio), with the extinction of CC-1065 absorbance at 365 nm taken as 48,000, and the extinction of the nucleic acid absorption at 260 nm based on its composition. Similar approaches were used with the drug U-71,184, with an assumed extinction of 32,000 at 365 nm.
(§4) When methyl phosphonate and synthetic RNA were used, the purities of the crude oligonucleotides were taken to be about 30%, based on the data sheet prepared by the supplier. (The remainder comprised primarily truncated sequences.) Appropriate excess amounts of these agents were included in the reactions to ensure helix formation. The corresponding sense or antisense oligonucleotides were maintained at 0.075 μmol-P in the reaction. […] Unpurified materials were used in these preliminary studies because of the relatively high cost of purified oligoribonucleotides. The majority of the contributions to A260 for these samples should be due to material that was not duplexed.
(§5) Table 1 summarizes binding data obtained from incubations of CC-1065 with nucleotides at greater than stoichiometric levels; the levels used in these experiments were 1 drug molecule/10 nucleotide residues, which is equivalent to 4 drug molecules/20-mer duplex. […] There seemed to be no difference in drug binding between antisense oligonucleotides with a PO and those with a PS backbone. Again, the 5′-AGTTA-3′ sequence on the sense strand was presumably the primary target, and the 3′-AAGTA-5′ on the antisense probe was presumably the secondary target.

In series [7] the test system is DNA sense (SEQ ID NO. 1) / DNA-PS antisense duplex (PO-PS). The series is described as follows: Binding of drug to duplex (NACS column, A365/A260). The arrangement: species or system equine infectious anemia retrovirus. The note with it: PO-PS; Initial D/N = 0.10. The procedure:
as §3, §4, §5

Series [8] relates to DNA sense (SEQ ID NO. 1) / DNA-PO antisense (SEQ ID NO. 2) duplex (PO-PO). The series can be described thus: Binding of drug to duplex (NACS column, A365/A260). The note with it: PO-PO; Initial D/N = 0.10. The arrangement: species or system equine infectious anemia retrovirus. The procedure:
as §3, §4, §5

The test system of series [9] is DNA sense (SEQ ID NO. 1) / DNA-MP antisense duplex (PO-MP). The series is described as follows: Duplex strand separation temperature (Tm). In kind it is binding, equine infectious anemia retrovirus. On the procedure:
as §1, §2

The subject of series [10] is Oligo(dA)-Oligo(dT). The series is described as follows: Binding of drug to duplex (NACS column, A365/A260). The note with it: Oligo(dA)-Oligo(dT); Initial D/N = 0.10. On the procedure: as §3, §4, §5
The subject of series [11] is Poly(rA)-Oligo(dT). The series is described as follows: Binding of drug to duplex (NACS column, A365/A260). The note with it: Poly(rA)-Oligo(dT); Initial D/N = 0.10. The procedure: as §3, §4, §5

As to “5′-TGTTGGGTAATAGGGGTTGA-3′ (SEQ ID NO. 4) (chemistry not given here) [antisense]”, the “DPM S-35 ± standard error” value in series [1] (1.95 μg mRNA, antisense about 3 times mRNA sense, CC-1065 3 times antisense, scintillation spectrometry) is reported as 35.225 ± 3.667 DPM. Besides, in series [1] (SDS-PAGE, autoradiography, data not shown), the “Production of the two protein products (autoradiography)” value was “suppressed production”. Also, the “Effect on translation” value in series [1] (in vitro translation of env mRNA fragment) is recorded as “partially inhibit translation”.
On to `Cn1cc(NC(=O)c2cc(NC(=O)c3cc(NC=O)cn3C)cn2C)cc1C(=O)NCCC(=N)N` [Distamycin, Distamycin A], for which the “Increase in Tm” value came to 0.7 in series [2] (PO-PO, Distamycin in solution at D/N = 0.1); 1.5 in series [3] (PS-PS, Distamycin in solution at D/N = 0.1); 21.3 in series [4] (dA-dT, Distamycin in solution at D/N = 0.1); 4.0 in [5] (rA-dT, Distamycin in solution at D/N = 0.1). Also, the “Tm with Distamycin, Ave ± S.D.” value in series [2] (PO-PO, Distamycin in solution at D/N = 0.1, in °C (unit assumed)) was 68.7 ± 0.6; in series [3] (PS-PS, Distamycin in solution at D/N = 0.1, in °C (unit assumed)), 65.7 ± 1.5; in series [4] (dA-dT, Distamycin in solution at D/N = 0.1, in °C (unit assumed)), 78.3 ± 0.6; in [5] (rA-dT, Distamycin in solution at D/N = 0.1, in °C (unit assumed)) it was 57.0 ± 0. In addition, the “Tm Elevation” value in series [2] (PO-PO) was determined as 0.7 °C; in series [3] (PS-PS) it was 1.5 °C; in [4] (dA-dT), 21.3 °C; in series [5] (rA-dT), 4.0 °C. Besides, the “Elevation of Tm” value in series [4] (oligo(dA)-oligo(dT)) is “significant elevation of Tm”.
On to `Cc1c[nH]c2c1C13CC1CN(C(=O)c1cc4cc(NC(=O)c5cc6ccccc6[nH]5)ccc4[nH]1)C3=CC2=O` (stereo not drawn) [U-71.184, U-71,184], for which the “Binding for MP antisense sequences” value in [6] (MP antisense sequences) is “about 1 drug molecule/duplex”. Besides, the “Bound D/N” value was 0.029 ± 0.001 in [6] (PO-MP, Initial D/N = 0.10); 0.026 ± 0.001 in series [7]; 0.026 ± 0.004 in series [8]; 0.049 ± 0.001 in series [10]; 0.023 ± 0.001 in [11]. In addition, the “Duplex Strand Separation Temperature” value in series [9] (DNA / DNA-MP, drug-bound duplex (Table 6)) came out at 73.0 ± 1.7; in series [2] (DNA / DNA-PO, drug-bound duplex (Table 6)) it was 75.5 ± 0.7; in series [3] (DNA / DNA-PS, drug-bound duplex (Table 6)) it was 73.0 ± 1.4; in series [4] (Oligo dA / Oligo dT, drug-bound duplex (Table 6)) it was 86.7 ± 0.6; in series [5] (Poly rA / Oligo dT (PO), drug-bound duplex (Table 6)), 54.3 ± 0.6. For the same compound, the “Tm Elevation” value in [9] (PO-MP, highest level of binding obtained) is 19.5 °C; in series [2] (PO-PO), 7.5 °C; in [3] (PS-PS) it was 8.6 °C; in series [4] (dA-dT) it was 29.7 °C; in [5] (rA-dT), 1.3 °C. The “Stabilization of duplexes” value in series [5] (poly(rA)-oligo(dT)) was “failure of U-71,184 to stabilize”.
